Assay results taken from publication PMC3454376, “Salidroside Improves Behavioral and Histological Outcomes and Reduces Apoptosis via PI3K/Akt Signaling after Experimental Traumatic Brain Injury” (PLoS ONE, 2012).

Test system: mice subjected to controlled cortical impact injury
Experiment: Contusion volume, cresyl violet staining
Type: in vivo
Settings: day 28; for contusion volume: vehicle 13.5±4.0
Method: All animal procedures were approved by the Animal Research Committee at Cheng Hsin General Hospital (Animal permit number […] 101-08), and all procedures complied with the Guide for the Care and Use of Laboratory Animals published by the US National Institutes of Health (NIH Publication No. 85-23, revised 1996). Animals were housed under a 12-h light/dark cycle and at constant temperature (21-25°C) and humidity (45-50%). They were allowed free access to pellet chow and water. TBI in mice was induced by a CCI injury model as previously described. Briefly, 8-week-old male C57BL/6 mice (weighing 22-25 g) were anesthetized through the use of intraperitoneal injection of sodium pentobarbital (65 mg/kg; Rhone Merieux, Harlow, UK) and placed in a stereotaxic frame. A 5 mm craniotomy was performed over the right parietal cortex, centered on the coronal suture and 0.1 mm lateral to the sagittal suture, and injury to dura was avoided. Injury was induced using a pneumatic piston with a rounded metal tip (2.5 mm diameter) that was angled 22.5° to the vertical so that the tip was perpendicular with the brain surface at the center of the craniotomy. The impact, with a velocity of […] and a deformation depth of 2 mm below the dura, was applied. The bone flap was immediately replaced and sealed, and the scalp was sutured. Body temperature was monitored throughout the surgery by a rectal probe; temperature was maintained at 37.0±0.5°C using a heated pad. Mice were placed in a heated cage to maintain body temperature, while recovering from anesthesia. Sham-operated mice underwent the same procedure as injured mice, but without CCI. Three sets of experiments were performed. The first set was to investigate the protective effects of salidroside. All animals were randomized into 1 of 3 groups (sham injury, CCI + vehicle, CCI + SALD 20). […] To determine the optimal dose of salidroside, a pilot study was performed using 2 different doses (20 and 50 mg/kg) administered 10 min after injury, and neurological deficits and tissue damage were evaluated as the main outcomes. […]

OC[C@H]1O[C@@H](OCCc2ccc(O)cc2)[C@H](O)[C@@H](O)[C@@H]1O [SALD, salidroside]
contusion volume as % of the vehicle group (20 mg/kg ip 10 min after CCI): 73.8%
contusion volume (20 mg/kg ip 10 min after CCI, P<0.05): 9.9±1.1 mm^3
contusion volume (50 mg/kg ip 10 min after CCI, P>0.05): 11.7±3.2 mm^3
